Reference: patent publication US8722868B2, “Glycosyltransferase, novel glycosyltransferase gene, and novel sugar donor compound” (National University Corporation Tokyo University of …, priority 2009, dated 2014)

Biological target: T1, delphinium-derived glycosyltransferase (SEQ ID NO: 3), recombinant (Delphinium grandiflorum, UniProt E3W9M3)
T1 construct: made in house; host or cells: Escherichia coli JM109 (crude lysate supernatant)
T1 sequence (E3W9M3 29-505 limits assumed): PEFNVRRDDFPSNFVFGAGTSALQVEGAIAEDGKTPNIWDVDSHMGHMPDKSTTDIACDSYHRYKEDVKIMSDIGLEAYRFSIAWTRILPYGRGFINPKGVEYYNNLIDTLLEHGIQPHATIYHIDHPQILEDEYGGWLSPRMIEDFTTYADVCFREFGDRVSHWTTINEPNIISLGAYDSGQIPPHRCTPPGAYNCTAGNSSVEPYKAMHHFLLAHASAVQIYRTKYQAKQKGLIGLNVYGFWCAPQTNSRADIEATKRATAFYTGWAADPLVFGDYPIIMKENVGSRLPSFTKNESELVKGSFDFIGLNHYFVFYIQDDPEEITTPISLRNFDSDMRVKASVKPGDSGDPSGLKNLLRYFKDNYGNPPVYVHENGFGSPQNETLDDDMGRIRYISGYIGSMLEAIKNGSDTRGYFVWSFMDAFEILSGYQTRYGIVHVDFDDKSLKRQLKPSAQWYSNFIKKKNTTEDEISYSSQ
Experiment: Glycosyl transfer reaction with delphinium-derived glycosyltransferase gene expressed in Escherichia coli
Type: biochemical, delphinium (Delphinium grandiflorum L.)
Details: recombinant enzyme from E. coli, cyanidin 3-O-β-glucoside as sugar receptor
Method: PCR was performed using a sense primer (“ATGCCCGAATTTAATGTCAG” (SEQ ID NO: 19)) designed so as to add a methionine residue for the initiation of translation to a sequence from which 28 amino acid residues at the N-terminus predicted as corresponding to vacuolar transfer signals of DgVA7GT had been removed and an antisense primer (“CTG TGA AGA GTA CGA TAT C” (SEQ ID NO: 20)) designed so as to lack a stop codon. The PCR product was ligated to a pTrcHis2-TOPO vector (Invitrogen) using a pTrcHis2-TOPO TA expression Kit (Invitrogen), followed by transformation of the Escherichia coli JM109 strain. DNA was extracted from the transformed Escherichia coli and the DNA nucleotide sequence was analyzed in the above manner. Accordingly, the direction of cDNA introduction and the nonoccurrence of a PCR-induced nucleotide substitution were confirmed.
The transformed Escherichia coli was seeded on an LB medium containing […] ampicillin (5 ml), followed by shake culture at 30° C. for 4 hours. Then, IPTG was added thereto to result in 1 mM, followed by shake culture at 16° C. for 2 hours. The cultured Escherichia coli was harvested via centrifugation at 1,800×g. The medium was removed therefrom. A 0.1 M citric acid buffer (pH 5.6) (150 μl) was added thereto, followed by sufficient mixing. […]

Row | SMILES | Sugar donor function with recombinant delphinium-derived glycosyltransferase (reaction product)
1 | COc1cc(C(=O)OC2OC(CO)C(O)C(O)C2O)ccc1O (centres unmarked) | capable of transferring glucose to the 7 position of the anthocyanin skeleton using vanillyl glucose as a sugar donor
2 | O=C(OC1OC(CO)C(O)C(O)C1O)c1ccc(O)cc1 (stereo not drawn) [1-O-β-p-hydroxybenzoyl glucose] | cyanidin 3,7-diglucoside formed as a result of transfer of glucose to a hydroxyl group at the 7 position of cyanidin 3-glucoside
